These results are taken from patent publication US5935969A, “Pyrido-thiopyrandoinazoles with antitumor activity” (University of Vermont, priority 1998, dated 1999).

The conditions of data set [1]: cited from earlier work.
For data set [2] the following is noted: in vivo; cited from earlier work.
For data set [3], the system named is cell histotypes developing resistance against doxorubicin mediated by overexpression of glycoprotein P. As to conditions: MDR; cited from earlier work.
Data set [4] relates to LoVo. The data set can be described thus: MTT cytotoxicity, human colon adenocarcinoma LoVo. It is filed as cell-based. The settings on record: read-out: IC50 LoVo (concentration causing 50% inhibition of tumor cells growth). On the procedure:
(§1) The evaluation of the biological activity for the compounds of this invention was performed "in vitro" and "in vivo" following the protocols developed by the U.S. National Cancer Institute.
(§2) The evaluation of the "in vitro" cytotoxic activity of the compounds of the invention was performed using the following cell lines: a murine sarcoma (S-180) and its subline expressing multidrug resistance (S-180/A-10), a leukemia (L1210), a human colon adenocarcinoma cell line (LoVo) isolated from a metastatic nodule and its subline expressing multidrug resistance. This latter subline is resistant to a number of antitumor agents, among which are doxorubicin, VP-16 and vincristine.
(§3) The columns headed L1210, S180 LoVo and LoVo/Dx contain the IC50 values against said tumor cell lines, as above described.
(§4) CYTOTOXICITY ON LOVO AND LOVO/DX WAS DETERMINED BY MTT ASSAY FOLLOWING 1

The test system of data set [5] is LoVo/Dx. The data set can be described thus: MTT cytotoxicity, multidrug-resistant subline LoVo/DX. The data set is classed as cell-based, human. As to conditions: for IC50: Homo sapiens, read-out: IC50 LoVo/Dx (concentration causing 50% inhibition of tumor cells growth). How it is done: as §1, §2
The columns headed L1210, S180 LoVo and LoVo/Dx contain the IC50 values against said tumor cell lines, as above described. […]
as §4

The test system of data set [6] is L1210. Put plainly: MTT cytotoxicity, leukemia L1210. The data set is classed as cell-based. As to conditions: Mus musculus, MTT assay, read-out: IC50 L1210 (concentration causing 50% inhibition of tumor cells growth). On the procedure: as §1, §2, §3
The subject of data set [7] is S180. Put plainly: MTT cytotoxicity, murine sarcoma S-180. It is filed as cell-based. The settings on record: Mus musculus; murine sarcoma S-180, MTT assay; read-out: IC50 S180 (concentration causing 50% inhibition of tumor cells growth). How it is done: as §1, §2, §3
For data set [8], the system named is LoVo/Dx. The settings on record: in words; cited from earlier work.
For data set [9] the following is noted: W.H.O. grade; phase I and phase II clinical trials; cited from earlier work.
For data set [10] the following is noted: rat; cited from earlier work.
The conditions of data set [11]: humans; cited from earlier work.
The conditions of data set [12]: i.p., non-tumor bearing rats, equieffective antitumor dosages; cited from earlier work.
Data set [13] relates to advanced breast cancer, acute leukemia and lymphoma. As to conditions: cited from earlier work.
Setting [14] is: in animals, versus mitoxantrone.
Where [15] appears, read: MTT assay, following 1 hour of drug exposure.
Where [16] appears, read: LoVo/Dx multidrug-resistant subline, MTT assay, following 1 hour of drug exposure.

≈ marks a conversion by molar mass, not a printed value. Where two headings read alike, the source gives them in different places.

On to `O=C1c2ccccc2C(=O)c2c(NCCNCCO)ccc(NCCNCCO)c21` [ametantrone, 1,4-bis[(2-(2-hydroxyethylamino)ethyl)amino]anthracene-9,10-dione], for which, in [1] (setting [14]), the “cardiotoxicity relative to mitoxantrone” value was “about 10 -fold less” and the “potency relative to mitoxantrone” value was “about 10 -fold less”. The myelodepressive toxicity entry in [2] was “remarkable myelodepressive toxicity”. Besides, the “cross-resistance to doxorubicin-resistant cell histotypes” value in data set [3] is recorded as “cross-resistance”.
Consider `CN(C)CCn1nc2c3c(c(NC(=O)CN)ccc31)Sc1ccncc1-2` [ex. 10-cpd 2, N'-[2-(2-dimethylamino)ethyl]-5-(2'-amino-acetylamino)-2H-pyrido[3',4':5,6]thiopyrano [4,3,2-cd]indazole], for which the IC50 in data set [4] (setting [15]) came to 0.04 µg/mL (≈ 0.109 µM); in data set [5] (setting [16]) it was 0.21 µg/mL (≈ 0.57 µM).
Consider `CCN(CC)CCn1nc2c3c(c([N+](=O)[O-])ccc31)Sc1ncccc1-2` [ex. 11-cpd 2, N,N-diethyl-5-nitro-2H-pyrido[3',2':5,6]thiopyrano[4,3,2-cd]indazole-2-ethanamine], for which the IC50 amounted to 0.2 µg/mL (≈ 0.541 µM) in data set [6] and 0.22 µg/mL (≈ 0.595 µM) in data set [7].
Take `CN(C)CCn1nc2c3c(c(N)ccc31)Sc1ccncc1-2` [Example 5, N,N-dimethyl-5-amino-2H-pyrido[3',4':5,6]thiopyrano[4,3,2-cd]indazole-2-ethanamine]: the IC50 turned out to be 0.003 µg/mL (≈ 0.00963 µM) in data set [6], 0.0066 µg/mL (≈ 0.0212 µM) in data set [7], 0.016 µg/mL (≈ 0.0514 µM) in data set [4] (setting [15]) and 0.027 µg/mL (≈ 0.0867 µM) in data set [5] (setting [16]).
For `CN(C)CCn1nc2c3c(c(NCCN)ccc31)Sc1ncccc1-2` [Example 7, N'-[2-[2-(dimethylamino)lethyl]-2H-pyrido[3',2':5,6]thiopyrano[4,3,2-cd]indazol-5-yl]l-1,2-ethanediamine], in that order: 0.0125 µg/mL (≈ 0.0353 µM), 0.058 µg/mL (≈ 0.164 µM), 0.027 µg/mL (≈ 0.0762 µM) and 16.8 µg/mL (≈ 47.4 µM).
In the case of `CN(C)CCNc1ccc2c3c(nn2CCN(C)C)-c2cccnc2Sc13` [Example 6, N'-[2-[2-(dimethylamino)ethyl]-2H-pyrido[3',2':5,6]thiopyrano[4,3,2-cd]indazol-5-yl]--N,N-dimethyl-1,2-ethanediamine], the IC50 in data set [6] was determined as 0.008 µg/mL (≈ 0.0209 µM); in data set [7], 0.028 µg/mL (≈ 0.0732 µM); in [4] (setting [15]) it was 2.4 µg/mL (≈ 6.27 µM); in data set [5] (setting [16]), 2.6 µg/mL (≈ 6.8 µM).
As for `COc1cccc2c1C(=O)c1c(O)c3c(c(O)c1C2=O)C[C@@](O)(C(=O)CO)C[C@@H]3O[C@H]1C[C@H](N)[C@H](O)[C@H](C)O1` [doxorubicin, reference compound], in [4] (1 h), the IC50 is 0.58 µg/mL (≈ 1.07 µM). Further, in data set [5] (LoVo/DX, 1 h), the IC50 was determined as 53.8 µg/mL (≈ 99 µM). In data set [8], the “accumulation of doxorubicin in LoVo/DX” value was “reduced accumulation” and the “resistance of the LoVo/DX subline” value is recorded as “resistant”.
On to `CN(C)CCn1nc2c3c(c(NC(=O)CN)ccc31)Sc1ncccc1-2` [ex. 10-cpd 1, N'-[2-(2-dimethylamino)ethyl]-5-(2'-amino-acetylamino)-2H-pyrido[3',2':5,6]thiopyrano [4,3,2-cd]indazole], for which the results for the IC50 in [6] and in data set [7] were 0.03 µg/mL (≈ 0.0814 µM) and 0.22 µg/mL (≈ 0.597 µM), respectively.
For the compound `CC[C@]1(O)C[C@H]2CN(CCc3c([nH]c4ccccc34)[C@@](C(=O)OC)(c3cc4c(cc3OC)N(C=O)[C@H]3[C@@](O)(C(=O)OC)[C@H](OC(C)=O)[C@]5(CC)C=CCN6CC[C@]43[C@@H]65)C2)C1` [vincristine], the “resistance of the LoVo/DX subline” value in data set [8] is recorded as “resistant”.
Take `CN(C)CCn1nc2c3c(c([N+](=O)[O-])ccc31)Sc1ncccc1-2` [Example 1]: the results for the IC50 in data set [6] and in data set [7] were 0.08 µg/mL (≈ 0.234 µM) and 0.17 µg/mL (≈ 0.498 µM), respectively.
Regarding `COc1cc(C2c3cc4c(cc3C(OC3OC5COC(C)OC5C(O)C3O)C3COC(=O)C23)OCO4)cc(OC)c1O` (stereo not shown) [VP-16], the “resistance of the LoVo/DX subline” value in data set [8] is “resistant”.
On to `CN(C)CCn1nc2c3c(c(NCCN)ccc31)Sc1ccncc1-2` [Example 8], for which the IC50 in [6] stood at 0.0016 µg/mL (≈ 0.00451 µM); in [7] it was 0.0029 µg/mL (≈ 0.00818 µM); in [4] (setting [15]), 0.008 µg/mL (≈ 0.0226 µM); in data set [5] (setting [16]), 0.26 µg/mL (≈ 0.733 µM).
On to `O=C1c2c(O)cccc2-c2nn(CCNCCO)c3ccc(NCCNCCO)c1c23` [CI-941], for which, in [4] (1 h), the IC50 was determined as 0.053 µg/mL (≈ 0.125 µM). The IC50 in data set [5] (LoVo/DX, 1 h) was 44.5 µg/mL (≈ 105 µM). Besides, in [5] (LoVo/DX, in words), the “activity in the resistant cell line” value was “loses completely its activity”. Also, in [9], the “leukopenia (dose limiting)” value was “grade 3 and 4”; the “neutropenia (dose limiting)” value is “grade 4”. For the same compound, in data set [10], the nephrotoxicity entry is reported as “marked nephrotoxicity”. Moreover, in [11], the cardiotoxicity result is “irreversible cardiotoxicity” and the “symptoms of cardiac failure or acute cardiac events” value is given as “no symptoms of cardiac failure or acute cardiac events”.
On to `CN(C)CCn1nc2c3c(c(NCCN)ccc31)Sc1cnccc1-2` [ex.9-cpd 30, N'-[2-[2-(dimethylamino)ethyl]-2H-pyrido[4',3':5,6]thiopyrano[4,3,2-cd]indazol-5-yl]-1,2-ethanediamine], for which the IC50 in data set [6] was 0.014 µg/mL (≈ 0.0395 µM); in data set [7] it was 0.058 µg/mL (≈ 0.164 µM).
In the case of `CCN(CC)CCn1nc2c3c(c(N)ccc31)Sc1ccncc1-2` [ex. 12-cpd 1, N,N-diethyl-5-amino-2H-pyrido[3',4':5,6]thiopyrano[4,3,2-cd]indazole-2-ethanamine], the IC50 in [6] was 0.0015 µg/mL (≈ 0.00442 µM); in data set [7], 0.0031 µg/mL (≈ 0.00913 µM); in data set [4] (setting [15]), 0.036 µg/mL (≈ 0.106 µM); in [5] (setting [16]), 0.094 µg/mL (≈ 0.277 µM).
Turning to `O=C1c2c(O)ccc(O)c2C(=O)c2c(NCCNCCO)ccc(NCCNCCO)c21` [mitoxantrone, 5,8-dihydroxy-1,4-bis[(2-(2-hydroxyethylamino)ethyl)amino]anthracene-9,10-dione], the IC50 turned out to be 0.024 µg/mL (≈ 0.054 µM) in data set [4] (1 h) and 0.67 µg/mL (≈ 1.51 µM) in data set [5] (LoVo/DX, 1 h). Also, the “cardiotoxicity in comparison to doxorubicin” value in data set [1] (animal studies) is “diminished cardiotoxicity in comparison to doxorubicin”. Besides, the delayed toxicity result in data set [12] is “a delayed toxicity is observed only with mitoxantrone”. Further, the clinical activity entry in [13] (clinical trials, advanced breast cancer, acute leukemia and lymphoma) is reported as “particularly promising activity”. Moreover, in data set [13] (mostly in patients previously treated with doxorubicin), the clinical cardiotoxicity entry is “some clinical cardiotoxicity has been observed”. Further, the myelodepressive toxicity result in data set [2] is “remarkable myelodepressive toxicity”.
Regarding `CN(C)CCn1nc2c3c(c([N+](=O)[O-])ccc31)Sc1ccncc1-2` [Example 4, N,N-dimethyl-5-nitro-2H-pyrido[3',4':5,6]thiopyranol[4,3,2cd]indazole-2-ethanamine], the IC50 in data set [6] was found to be 0.00062 µg/mL (≈ 0.00182 µM); in data set [7], 0.0032 µg/mL (≈ 0.00937 µM).
For `CN(C)CCn1nc2c3c(c([N+](=O)[O-])ccc31)Sc1cnccc1-2` [Example 3, N,N-dimethyl-5-nitro-2H-pyrido[4',3':5,6]thiopyrano[4,3,2-cd]indazole-2-ethanamine], in that order: 0.05 µg/mL (≈ 0.146 µM) and 0.14 µg/mL (≈ 0.41 µM).
For `CCN(CC)CCn1nc2c3c(c([N+](=O)[O-])ccc31)Sc1ccncc1-2` [ex. 11-cpd 1, N,N-diethyl-5-nitro-2 H-pyrido[3',4': 5,6]thiopyrano[4,3,2-cd]indazole-2-ethanamine], in that order: 0.00061 µg/mL (≈ 0.00165 µM) and 0.0031 µg/mL (≈ 0.00839 µM).
